Measurements reported in patent US4150970A, “Growth regulator for plants” (Board of Trustees of Michigan State University, priority 1977, dated 1979).

Tests used:
Chico III tomatoes = test: Synthetic triacontanol on tomatoes grown in soil, foliage sprayed (Example III); format: in vivo, tomato; conditions: six days
Procedure: Synthetic triacontanol in aqueous solution was applied to rice (4 replicates) in nutrient cultures and to "Chico III" tomatoes (6 replicates) grown in soil as previously described. The response of both rice and tomatoes to synthetic triacontanol after seven and six days respectively was similar to that of the natural triacontanol with the optimum rate at between 0.01 and 0.1 mg per liter, as summarized in the following table III:
^2 Tomatoes grown in greenhouse soil and foliage sprayed, including

IR-8 rice seedlings = test: Growth and water uptake of IR-8 rice seedlings (Example IV); format: in vivo; conditions: for Dry Wt. per plant / Leaf Area per plant / Water Uptake per leaf area / Water Uptake per plant: 10 μg/liter
Procedure: (§1) Rice seed cv. IR-8, or Starbonnet was surface treated with 0.1 percent mercuric chloride and planted in 77 cc plastic cups containing vermiculite and watered with one-fourth Hoagland's nutrient solution containing 3 mM of nitrogen at pH 5.0. After 10 days, seedlings were transplanted to 220 cc specimen cups wrapped in aluminum foil and containing 180 cc of the same Hoagland's nutrient solution. Four seedlings were suspended in the solution with a sponge rubber disc. The plants were grown under a 8 h night at 25° C. and a 16 h day at 30° C. with 21 and 8 μwatts per cm^2 in the blue and red spectra respectively. In the test with varying light intensity the high light intensity was 30 13 and the low intensity was 15 and 8 μwatts per cm^2 for the blue and red spectra respectively. The nutrient solution was renewed every 2 or 3 days. After one week the plants were sorted for size and similar sized plants assigned to the same block for the experiment. Prior to the initiation of a test the plants in each cup were assigned treatment numbers by use of a random number table. […] Sixteen hours prior to a test the foil wrapped cups were tared, and filled with one-half Hoaglands solution containing 6 mM nitrogen. Eighteen μl of chloroform or chloroform containing 1.8 μg triacontanol were placed on 2 cm^2 of Whatman No. 1 filter papers, air dried and placed in the specimen cups. This concentration of 10 μg triacontanol/liter was used for all tests described in the following Examples except where specifically indicated to the contrary. Immediately prior to the test the cups were all brought up to 180 ml. including a set of cups without plants to measure evaporation.
(§2) Water uptake was measured by weighing the cups after removal of the plants and subtracting the tare and the water evaporated. For tests continued for more than one day, the solution used was measured every 3 days and new Hoagland's added and the pH maintained at 5.0 with sulfuric acid.
(§3) The plants were disected at harvest into shoots and roots. The expanded leaves were cut at the ligule and the newest leaf at the point it entered the sheath. The surface area of expanded leaves were measured using a Lambda Model LI-3000 planimeter. The plants were dried to constant weight in an oven at 100° C. and the roots, expanded leaves, and sheaths were weighed separately.
Four to 6 replicates were used in each experiment in a randomized complete block design. The data were submitted to analysis of variance. Means were compared by use of the L.S.D. except where there was only one degree of freedom for treatment. In these instances the F value from the analysis of variance was used for comparison of means.
To determine the effect of triacontanol on growth and water uptake of IR-8 rice seedlings, the seedlings were prepared as above explained. Alternate seedlings were treated with no triacontanol or with a concentration of 10 μg triacontanol per liter as above set forth. Leaf area, dry weight and water uptake were determined for each plant at 0 time and at 8, 24, 72 and 216 hour intervals.

Michigan 396 field corn = test: Single and multiple foliar applications on field corn (Example XII); format: in vivo
Text: Tests were run, under the conditions above described, to determine the response of "Michigan 396" field corn and "Larker" barley to single and multiple foliar applications of triacontanol at […]. Plants were one week old at time of first treatment and 25 days old at time or harvest. Table XII states the test results.

[1] = system: Starbonnet rice seedlings; test: Dry weight, leaf area and water uptake of rice under two light intensities (Example XVI); format: in vivo
Procedure: as §1, §2, §3
Fourteen day old "Starbonnet" rice seedlings were prepared and treated with triacontanol as explained in Example IV above.
The increase in dry weight and leaf area and the water uptake of the rice seedlings treated with triacontanol under two different light intensities was determined. High light was 30 and 13 μwatts/cm^2 and low light 15 and 8 μwatts/cm^2 in the blue and red spectra respectively. The plants were exposed to these light conditions 36 hours prior to treatment. At zero time the plants under low light intensity weighed 26.0 mg with 4.41 cm^2 leaf area. The high light plants weighed 29.5 mg per plant with 4.01 cm^2 leaf area per plant. FIGS. 1, 2 and 3 of the accompanying drawings show the results of these tests. In each Figure, A=low light control; B=low light+triacontanol; C=high light control; and D=high light+triacontanol. Presented in tabular form, the data for FIGS. 1, 2 and 3 appears in Table XVI, as follows: […]

[2] = 10 μg per liter, nutrient solution

## CCCCCCCCCCCCCCCCCCCCCCCCCCCCCCO [Triacontanol, 1-triacontanol]
Chico III tomatoes; 0.001 mg/liter
  Dry wt: 227 mg/shoot
Chico III tomatoes; 0.010 mg/liter
  Dry wt: 251 mg/shoot
Chico III tomatoes; 0.100 mg/liter
  Dry wt: 245 mg/shoot
Chico III tomatoes; 1.000 mg/liter
  Dry wt: 234 mg/shoot
IR-8 rice seedlings; [2]
  time within which dry weight of entire plant significantly increased: ≤ 3 days
  time within which leaf area significantly increased: ≤ 8 h
IR-8 rice seedlings; 8 hours
  Dry Wt. per plant: 53.4 mg
  Leaf Area per plant: 8.2 cm^2
  Water Uptake per leaf area: 0.25 ml/cm^2 leaf area
  Water Uptake per plant: 2.0 mL
IR-8 rice seedlings; 24 hours
  Dry Wt. per plant: 58.6 mg
  Leaf Area per plant: 9.0 cm^2
  Water Uptake per leaf area: 0.35 ml/cm^2 leaf area
  Water Uptake per plant: 3.2 mL
IR-8 rice seedlings; 72 hours
  Dry Wt. per plant: 81.7 mg
  Leaf Area per plant: 13.7 cm^2
  Water Uptake per leaf area: 1.34 ml/cm^2 leaf area
  Water Uptake per plant: 18.4 mL
IR-8 rice seedlings; 216 hours
  Dry Wt. per plant: 204.0 mg
  Leaf Area per plant: 22.4 cm^2
  Water Uptake per leaf area: 2.92 ml/cm^2 leaf area
  Water Uptake per plant: 65.5 mL
Michigan 396 field corn; treated at 7, 12 and 18 days
  Dry wt, Corn: 562 mg/shoot
Michigan 396 field corn; treated at 7 and 12 days
  Dry wt, Corn: 542 mg/shoot
Michigan 396 field corn; treated at 12 and 18 days
  Dry wt, Corn: 614 mg/shoot
Michigan 396 field corn; treated at 7 days
  Dry wt, Corn: 548 mg/shoot
Michigan 396 field corn; treated at 12 days
  Dry wt, Corn: 522 mg/shoot
Michigan 396 field corn; treated at 18 days
  Dry wt, Corn: 486 mg/shoot
[1]; high light, 4 hr
  Dry Wt., Percent Increase from Zero Time: 16%
  Leaf Area, Percent Increase from Zero Time: 19%
  Water Uptake: 192 μl/cm^2 leaf area
[1]; high light, 8 hr
  Dry Wt., Percent Increase from Zero Time: 27%
  Leaf Area, Percent Increase from Zero Time: 38%
  Water Uptake: 351 μl/cm^2 leaf area
[1]; high light, 16 hr
  Dry Wt., Percent Increase from Zero Time: 51%
  Leaf Area, Percent Increase from Zero Time: 88%
  Water Uptake: 649 μl/cm^2 leaf area
[1]; low light conditions
  dry weight and leaf area gain under low light versus control under high light: gained as much dry weight and leaf area as the control plants did when subjected to high light conditions
[1]; low light, 4 hr
  Dry Wt., Percent Increase from Zero Time: 10%
  Leaf Area, Percent Increase from Zero Time: 7%
  Water Uptake: 117 μl/cm^2 leaf area
[1]; low light, 8 hr
  Dry Wt., Percent Increase from Zero Time: 23%
  Leaf Area, Percent Increase from Zero Time: 31%
  Water Uptake: 239 μl/cm^2 leaf area
[1]; low light, 16 hr
  Dry Wt., Percent Increase from Zero Time: 45%
  Leaf Area, Percent Increase from Zero Time: 64%
  Water Uptake: 453 μl/cm^2 leaf area
